Results reported in patent US7135462B2, “Hepatitis C virus inhibitors” (priority 2003, dated 2006).
Like-named read-outs stand apart in the source and are kept apart here.

Legend:
[1] = tested on: HCV replicon in Huh7 cells; experiment: microbe, parasite or virus in culture; assay type: cell-based, strain 1b; conditions: Hepatitis C virus, Huh-7, 96 h; Huh7 cells expressing HCV replicon, 4 days; activity range class
Source text: Generation of HCV Replicon
This system enabled us to evaluate the effects of our HCV Protease compounds on HCV RNA replication. Briefly, using the HCV strain 1b sequence described in the Lohmann paper (Assession number: AJ238799), an HCV cDNA was generated encoding the 5′ internal ribosome entry site (IRES), the neomycin resistance gene, the EMCV (encephalomyocarditis viurs)-IRES and the HCV nonstructural proteins, NS3-NS5B, and 3′ non-translated region (NTR). In vitro transcripts of the cDNA were transfected into the human hepatoma cell line, Huh7. […] Resulting cell lines were characterized for positive and negative strand RNA production and protein production over time.
Huh7 cells, constitutively expressing the HCV replicon, were grown in Dulbecco's Modified Eagle Media (DMEM) containing 10% Fetal calf serum (FCS) and 1 mg/ml G418 (Gibco-BRL). Cells were seeded the night before (1.5×10^4 cells/well) in 96-well tissue-culture sterile plates. Compound and no compound controls were prepared in DMEM containing 4% FCS, 1:100 Penicillin/Streptomysin, 1:100 L-glutamine and 5% DMSO in the dilution plate (0.5% DMSO final concentration in the assay). Compound/DMSO mixes were added to the cells and incubated for 4 days at 37° C. After 4 days, plates were rinsed thoroughly with Phosphate-Buffered Saline (PBS) (3 times 150 μl). The cells were lysed with 25 μl of a lysis assay reagent containing the FRET peptide (RET S1, as described for the in vitro enzyme assay). The lysis assay reagent was made from 5× cell Luciferase cell culture lysis reagent (Promega #E153A) diluted to 1× with distilled water, NaCl added to 150 mM final, the FRET peptide diluted to 10 μM final from a 2 mM stock in 100% DMSO. The plate was then placed into the Cytofluor 4000 instrument which had been set to 340 nm excitation/490 nm emission, automatic mode for 21 cycles and the plate read in a kinetic mode. EC50 determinations were carried out as described for the IC50 determinations. […]
The percentage inhibition was calculated using the formula below: […]
The values were graphed and analyzed using XLFit to obtain the EC50 value.

[2] = molecular target: T1, HCV NS3/4A protease complex (BMS strain) (UniProt P27958, C1454S/C1711G, species not given); experiment: Recombinant HCV NS3/4A protease complex FRET peptide assay; assay type: biochemical, Hepatitis C virus (HCV), genotype 1a; conditions: NS3/4A BMS strain, activity range class
T1 construct: for H77 and J4L6S; fused on or other part: Three-lysine solubilising tail at the C-terminus of NS4A
Source text: Recombinant HCV NS3/4A Protease Complex FRET Peptide Assay
Serum from an HCV-infected patient was obtained from Dr. T. Wright, San Francisco Hospital. An engineered full-length cDNA (compliment deoxyribonucleic acid) template of the HCV genome (BMS strain) was constructed from DNA fragments obtained by reverse transcription-PCR (RT-PCR) of serum RNA (ribonucleic acid) and using primers selected on the basis of homology between other genotype 1a strains.
The H77 and J4L6S strains were used for production of recombinant NS3/4A protease complexes. […] Briefly, a three-lysine solubilizing tail was added at the 3′-end of the NS4A coding region. […] Briefly, the NS3/4A protease complex expression was induced with 0.5 millimolar (mM) Isopropyl β-D-1-thiogalactopyranoside (IPTG) for 22 hours (h) at 20° C. […] The cells were resuspended in lysis buffer (10 mL/g) consisting of 25 mM N-(2-Hydroxyethyl)piperazine-N′-(2-Ethane Sulfonic acid) (HEPES), pH 7.5, 20% glycerol, 500 mM Sodium Chloride (NaCl), 0.5% Triton X-100, 1 microgram/milliliter (“μg/mL”) lysozyme, 5 mM Magnesium Chloride (MgCl2), 1 μg/ml DnaseI, 5 mM β-Mercaptoethanol (βME), Protease inhibitor—Ethylenediamine Tetraacetic acid (EDTA) free (Roche), homogenized and incubated for 20 minutes (min) at 4° C. The homogenate was sonicated and clarified by ultra-centrifugation at 235000 g for 1 h at 4° C. Imidazole was added to the supernatant to a final concentration of 15 mM and the pH adjusted to 8.0. The crude protein extract was loaded on a Nickel—Nitrilotriacetic acid (Ni-NTA) column pre-equilibrated with buffer B (25 mM HEPES, pH 8.0, 20% glycerol, 500 mM NaCl, 0.5% Triton X-100, 15 mM imidazole, 5 mM βME). The sample was loaded at a flow rate of 1 mL/min. The column was washed with 15 column volumes of buffer C (same as buffer B except with 0.2% Triton X-100). The protein was eluted with 5 column volumes of buffer D (same as buffer C except with 200 mM Imidazole).
NS3/4A protease complex-containing fractions were pooled and loaded on a desalting column Superdex-S200 pre-equilibrated with buffer D (25 mM HEPES, pH 7.5, 20% glycerol, 300 mM NaCl, 0.2% Triton X-100, 10 mM βME). Sample was loaded at a flow rate of 1 mL/min. NS3/4A protease complex-containing fractions were pooled and concentrated to approximately 0.5 mg/ml.
The enzyme was stored at −80° C., thawed on ice and diluted prior to use in assay buffer. […] The sequence of this peptide is loosely based on the NS4A/NS4B natural cleavage site for the HCV NS3 protease except there is an ester linkage rather than an amide bond at the cleavage site. The peptide substrate was incubated with one of the three recombinant NS3/4A protease complexes, in the absence or presence of a compound of the present invention, and the formation of fluorescent reaction product was followed in real time using a Cytofluor Series 4000.
The reagents were as follow: HEPES and Glycerol (Ultrapure) were obtained from GIBCO-BRL. Dimethyl Sulfoxide (DMSO) was obtained from Sigma. β-Mercaptoethanol was obtained from Bio Rad.
Assay buffer: 50 mM HEPES, pH 7.5; 0.15 M NaCl; 0.1% Triton; 15% Glycerol; 10 mM βME. Substrate: 2 μM final concentration (from a 2 mM stock solution in DMSO stored at −20° C.). HCV NS3/4A protease type 1a (1b), 2–3 nM final concentration (from a 5 μM stock solution in 25 mM HEPES, pH 7.5, 20% glycerol, 300 mM NaCl, 0.2% Triton-X100, 10 mM βME).
The assay was performed in a 96-well polystyrene black plate from Falcon.

Compound	EC50 [1] [nM]	IC50 ([2]; read-out: IC50) [nM]	IC50 [2] [nM]
C=C[C@@H]1C[C@]1(NC(=O)[C@@H]1C[C@@H](Oc2nccc3cc(OC)ccc23)CN1C(=O)[C@@H](NC(=O)OC(C)(C)C)C(C)(C)C)C(=O)NS(=O)(=O)C1(CCC)CC1 [Cmpd 302, (1-{4-(6-Methoxy-isoquinolin-1-yloxy)-2-[1-(1-propyl-cyclopropanesulfonylaminocarbonyl)-2-vinyl-cyclopropylcarbamoyl]-pyrrolidine-1-carbonyl}-2,2-dimethyl-propyl)-carbamic acid tert-butyl ester]	< 100	< 100	
C=C[C@@H]1C[C@]1(NC(=O)[C@@H]1C[C@@H](Oc2nccc3cc(OC)ccc23)CN1C(=O)[C@@H](NC(=O)OC(C)(C)C)C(C)(C)C)C(=O)NS(=O)(=O)C1(Cc2ccccc2)CC1 [Cmpd 303, {1-[2-[1-(1-Benzyl-cyclopropanesulfonylaminocarbonyl)-2-vinyl-cyclopropylcarbamoyl]-4-(6-methoxy-isoquinolin-1-yloxy)-pyrrolidine-1-carbonyl]-2,2-dimethyl-propyl}-carbamic acid tert-butyl ester]	100 to 1000	100 to 1000	
C=C[C@@H]1C[C@]1(NC(=O)[C@@H]1C[C@@H](Oc2nccc3cc(OC)ccc23)CN1C(=O)[C@@H](NC(=O)OC(C)(C)C)C(C)(C)C)C(=O)NS(=O)(=O)C1(Cl)CC1 [Cmpd 304, {1-[2-[1-(1-Chloro-cyclopropanesulfonylaminocarbonyl)-2-vinyl-cyclopropylcarbamoyl]-4-(6-methoxy-isoquinolin-1-yloxy)-pyrrolidine-1-carbonyl]-2,2-dimethyl-propyl}-carbamic acid tert-butyl ester]	< 100	< 100	
C=C[C@@H]1C[C@]1(NC(=O)[C@@H]1C[C@@H](Oc2nccc3ccccc23)CN1C(=O)[C@@H](NC(=O)OC(C)(C)C)C(C)(C)C)C(=O)NS(=O)(=O)C1(CC2CC2)CC1 [Cmpd 400]	100 to 1000		< 100
C=C[C@@H]1C[C@]1(NC(=O)[C@@H]1C[C@@H](Oc2nccc3ccccc23)CN1C(=O)[C@@H](NC(=O)OC(C)(C)C)C(C)(C)C)C(=O)NS(=O)(=O)C1(Cc2ccccc2)CC1 [Cmpd 401]	100 to 1000		100 to 1000
C=C[C@@H]1C[C@]1(NC(=O)[C@@H]1C[C@@H](Oc2cc(-c3ccccc3)nc3c(C)noc23)CN1C(=O)[C@@H](NC(=O)OC(C)(C)C)C(C)(C)C)C(=O)NS(=O)(=O)C1(Cc2ccccc2)CC1 [Cmpd 500]	100 to 1000	< 100	
C=C[C@@H]1C[C@]1(NC(=O)[C@@H]1C[C@@H](Oc2cc(-c3ccccc3)nc3c(C)noc23)CN1C(=O)[C@@H](NC(=O)OC(C)(C)C)C(C)(C)C)C(=O)NS(=O)(=O)C1(CCC)CC1 [Cmpd 501]	100 to 1000		< 100
CCCC1(S(=O)(=O)NC(=O)[C@@]2(NC(=O)[C@@H]3C[C@@H](Oc4cc(-c5ccccc5)nc5c(C)noc45)CN3C(=O)[C@@H](NC(=O)OC(C)(C)C)C(C)(C)C)C[C@H]2CC)CC1 [Cmpd 502]	100 to 1000		100 to 1000
C=C[C@@H]1C[C@]1(NC(=O)C1C[C@@H](Oc2nc(-c3ccccc3)nc3ccccc23)CN1C(=O)[C@@H](NC(=O)OC(C)(C)C)C(C)(C)C)C(=O)NS(=O)(=O)C1(CC2CC2)CC1 (some centres unmarked) [Cmpd 600]	< 100	< 100	
C=C[C@@H]1C[C@]1(NC(=O)[C@@H]1C[C@@H](Oc2nc(-c3ccccc3)nc3ccccc23)CN1C(=O)[C@@H](NC(=O)OC(C)(C)C)C(C)(C)C)C(=O)NS(=O)(=O)C1(Cc2ccccc2)CC1 [Cmpd 601]	100 to 1000	< 100	
C=C[C@@H]1C[C@]1(NC(=O)[C@@H]1C[C@@H](Oc2nc(-c3ccccc3)nc3ccccc23)CN1C(=O)[C@@H](N)C(C)(C)C)C(=O)NS(=O)(=O)C1(CC2CC2)CC1 [Cmpd 602]	1000 to 10000	100 to 1000	
C=C[C@@H]1C[C@]1(NC(=O)[C@@H]1C[C@@H](Oc2nc(-c3ccccc3)nc3ccccc23)CN1C(=O)[C@@H](NC(C)=O)C(C)(C)C)C(=O)NS(=O)(=O)C1(CC2CC2)CC1 [Cmpd 604]	100 to 1000	< 100	
C=C[C@@H]1C[C@]1(NC(=O)[C@@H]1C[C@@H](Oc2nc(-c3ccccc3)nc3ccccc23)CN1C(=O)[C@@H](NC(=O)c1cnccn1)C(C)(C)C)C(=O)NS(=O)(=O)C1(CC2CC2)CC1 [Cmpd 605]	1000 to 10000	100 to 1000	
C=C[C@@H]1C[C@]1(NC(=O)[C@@H]1CC(Oc2ccnc(-c3cccs3)c2)CN1C(=O)[C@@H](NC(=O)OC1CCCC1)C(C)(C)C)C(=O)NS(=O)(=O)C1(CC2CC2)CC1 (some centres unmarked) [Cmpd 700]	< 100	< 100	
C=C[C@@H]1C[C@]1(NC(=O)[C@@H]1CC(Oc2ccnc(-c3cccs3)c2)CN1C(=O)[C@@H](NC(=O)OC1CCCC1)C(C)(C)C)C(=O)NS(=O)(=O)C1(Cc2ccccc2)CC1 (some centres unmarked) [Cmpd 701]	100 to 1000	< 100	
C=C[C@@H]1C[C@]1(NC(=O)[C@@H]1C[C@@H](Oc2nccc3c(OC)cccc23)CN1C(=O)[C@@H](NC(=O)OC(C)(C)C)C(C)(C)C)C(=O)NS(=O)(=O)C1(CC)CC1 [Cpd 100]	< 100		< 100
C=C[C@@H]1C[C@]1(NC(=O)[C@@H]1C[C@@H](Oc2nccc3c(Cl)cccc23)CN1C(=O)[C@@H](NC(=O)OC(C)(C)C)C(C)(C)C)C(=O)NS(=O)(=O)C1(CC)CC1 [Cpd 101]	< 100	< 100	
C=C[C@@H]1C[C@]1(NC(=O)[C@@H]1C[C@@H](Oc2ncc(Cl)c3ccccc23)CN1C(=O)[C@@H](NC(=O)OC(C)(C)C)C(C)(C)C)C(=O)NS(=O)(=O)C1(CC)CC1 [Cpd 102]	100 to 1000		< 100
C=C[C@@H]1C[C@]1(NC(=O)[C@@H]1C[C@@H](Oc2nccc3c(OC(F)(F)F)cccc23)CN1C(=O)[C@@H](NC(=O)OC(C)(C)C)C(C)(C)C)C(=O)NS(=O)(=O)C1(CC)CC1 [Cpd 103]	100 to 1000	< 100	
